According to PubChem BioAssay AID1985 (Southern Research Specialized Biocontainment Screening …, 2009):

system: S. Typhi PhoP-promoter GFP reporter, fluorescence, 4 h; assay: PhoP regulon inhibitor project modified counter assay, GFP fluorescence readout, dose response (AID 1985)

**Q.** Which IC50 does the source give for `O=C(/C=C/c1cccs1)NC(=S)NNC(=O)c1ccccc1O` here?
**A.** 27 µM

**Q.** How did the IC50 turn out when `Cc1ccsc1/C=N/Nc1ccc(C(=O)O)cc1` was run?
**A.** 94.2 µM

**Q.** How did the IC50 turn out when `COc1cc([N+](=O)[O-])cc(/C=N/NC(=O)c2cccnc2)c1O` was run?
**A.** 66.7 µM

**Q.** How did the IC50 turn out when `CN(C)CCCNC(=S)NCC(c1ccc(Cl)cc1Cl)c1c[nH]c2ccccc12` (stereo unspecified) was run?
**A.** 36.5 µM

**Q.** With `Fc1ccc(CCNCc2ccc(Cl)c(Cl)c2)cc1` as the molecule, how does the IC50 read?
**A.** 68.4 µM

**Q.** `Cc1cc(OCC(O)CNC(C)c2ccccc2)ccc1C(C)C` (stereo unspecified) was tested. Which IC50 did it give?
**A.** 82.6 µM

**Q.** How did the IC50 turn out when `Cc1ccccc1Nc1cc(C)c2c(O)cccc2n1` was run?
**A.** 25.5 µM

**Q.** With `O=C1OCCN1/N=C/c1ccc([N+](=O)[O-])o1` as the molecule, how does the IC50 read?
**A.** 13.4 µM

**Q.** `C/C(=N\NC(=O)c1cccc(Br)c1)c1ccccn1` was tested. Which IC50 did it give?
**A.** 54.4 µM

**Q.** How did the IC50 turn out when `C#CCOCCOCCOCCNc1nc(N2CCN(C(=O)[C@H](Cc3cc4ccccc4[nH]3)n3cc([C@@H](N)C(C)CC)nn3)CC2)nc(N2CCN(C(=O)[C@H](Cc3cc4ccccc4[nH]3)n3cc([C@@H](N)Cc4ccc(O)cc4)nn3)CC2)n1` (stereo partly specified) was run?
**A.** 60 µM

**Q.** How did the IC50 turn out when `N/C(=N\OS(=O)(=O)c1ccc2ccccc2c1)c1cccnc1` was run?
**A.** 14.2 µM

**Q.** For `Cc1cc(C2CCCCC2)n(O)c(=O)c1`, which IC50 is on record?
**A.** 20.9 µM

**Q.** Which IC50 does the source give for `O=c1[nH]cc(F)c(=O)[nH]1` here?
**A.** 0.378 µM

**Q.** With `CC(C)(C)/C(O)=C/c1nc2cc(Cl)ccc2oc1=O` as the molecule, how does the IC50 read?
**A.** 11.2 µM

**Q.** How did the IC50 turn out when `c1cc2c(cc1C1CCCCC1)c1c3n2CCCNC3CCC1` (stereo unspecified) was run?
**A.** 39.9 µM

**Q.** Which IC50 does the source give for `O=c1c2ccccc2nc(-c2cccc(Cl)c2)n1O` here?
**A.** 113 µM

**Q.** How did the IC50 turn out when `CCOc1ccc(Nc2nc(N)c3ccccc3n2)cc1` was run?
**A.** 44.5 µM

**Q.** With `CSc1nc2cc(Oc3cccc(Cl)c3Cl)c(Cl)cc2[nH]1` as the molecule, how does the IC50 read?
**A.** 57.8 µM

**Q.** Which IC50 does the source give for `CCCCCCCCCCOC(=O)Cn1c(COc2ccccc2OC)[n+](C)c2ccccc21` here?
**A.** 25.4 µM

**Q.** Which IC50 does the source give for `O=C1OCC(CO)(CO)N=C1NNc1ccc(Cl)c(Cl)c1` here?
**A.** 26.1 µM

**Q.** How did the IC50 turn out when `Oc1c(Br)cc(Br)cc1C=NCc1ccccc1` was run?
**A.** 49.7 µM

**Q.** For `OC(CNCCc1ccccc1)COc1ccc(OCC(O)CNCCc2ccccc2)cc1` (stereo unspecified), which IC50 is on record?
**A.** 21.2 µM

**Q.** How did the IC50 turn out when `Oc1c(Br)cc(Br)cc1C=NCc1ccc(F)cc1` was run?
**A.** 54.4 µM

**Q.** With `CCn1cc(C(=O)NCCN(C)C)c(=O)c2cc(F)c(N3CCN(C)CC3)cc21` as the molecule, how does the IC50 read?
**A.** 34 µM

**Q.** With `CN(C)CC/C=C1/c2cc(F)ccc2Sc2ccc(Cl)cc21` as the molecule, how does the IC50 read?
**A.** 84.9 µM

**Q.** For `Fc1ccc(Nc2nnc(C(F)(F)F)s2)cc1Cl`, which IC50 is on record?
**A.** 38 µM

**Q.** Which IC50 does the source give for `CCOc1cccc(/C=N/NC(=O)c2cc(C3CC3)[nH]n2)c1O` here?
**A.** 136 µM

**Q.** Which IC50 does the source give for `C#CCOCCOCCOCCNc1nc(N2CCN(C(=O)[C@H](Cc3ccc(O)cc3)n3cc([C@@H](N)CC(C)C)nn3)CC2)nc(N2CCN(C(=O)[C@H](Cc3cc4ccccc4[nH]3)n3cc([C@@H](N)CC(C)C)nn3)CC2)n1` here?
**A.** 85.1 µM

**Q.** For `COc1cccc(Nc2nc(NCC3CCCO3)c3ccccc3n2)c1` (stereo unspecified), which IC50 is on record?
**A.** 34.2 µM

**Q.** How did the IC50 turn out when `CCCOc1ccc(C(=O)NNC(=S)NC(C)=O)cc1` was run?
**A.** 52.3 µM

**Q.** `O=C(NC(CO)C(O)c1ccc([N+](=O)[O-])cc1)C(Cl)Cl` (stereo unspecified) was tested. Which IC50 did it give?
**A.** 2.55 µM

**Q.** Which IC50 does the source give for `Cc1ccc2nc(/C(C#N)=C\c3ccc([N+](=O)[O-])o3)[nH]c2c1` here?
**A.** 23.3 µM

**Q.** `C/C(=N\NC(=O)c1ccc(Cl)cc1)c1ccccn1` was tested. Which IC50 did it give?
**A.** 48.3 µM

**Q.** With `c1ccc(Nc2ccnc(Nc3ccccc3)n2)cc1` as the molecule, how does the IC50 read?
**A.** 67.2 µM

**Q.** With `Cc1ccc(C(=O)NCCN2C3=NC[C@@H](Cc4ccccc4)N3C[C@H]2Cc2ccc(O)cc2)cc1Br` as the molecule, how does the IC50 read?
**A.** 121 µM

**Q.** For `CCOc1ccc(Nc2nc(NCC3CCCO3)c3ccccc3n2)cc1` (stereo unspecified), which IC50 is on record?
**A.** 14.2 µM

**Q.** With `Cc1nc(N)c(Cc2ccc(Cl)cc2Cl)c(N)n1` as the molecule, how does the IC50 read?
**A.** 83.9 µM

**Q.** For `C=CCNc1ncnc2c1[nH]c1ccc(Cl)cc12`, which IC50 is on record?
**A.** 49.2 µM

**Q.** With `CCCCOCCCNc1ncnc2c1[nH]c1ccccc12` as the molecule, how does the IC50 read?
**A.** 72.8 µM

**Q.** With `COc1cc(C)c(Cc2cnc(N)nc2N)cc1OC` as the molecule, how does the IC50 read?
**A.** 2.4 µM

**Q.** `CC1CCc2cc(F)cc3c(=O)c(C(=O)O)cn1c23` (stereo unspecified) was tested. Which IC50 did it give?
**A.** 9.57 µM

**Q.** How did the IC50 turn out when `O=C(Nc1nnc(-c2ccccn2)o1)c1cccc(Cl)c1` was run?
**A.** 107 µM

**Q.** `CN1CCN(C(c2ccc(C(F)(F)F)cc2)c2ccc3cccnc3c2O)CC1` (stereo unspecified) was tested. Which IC50 did it give?
**A.** 34.9 µM

**Q.** For `COc1ccc(C(=O)N/N=C/c2sc3ccccc3c2O)cc1`, which IC50 is on record?
**A.** 44.2 µM

**Q.** For `N/C(=N\OS(=O)(=O)c1ccccc1)c1cccnc1`, which IC50 is on record?
**A.** 9.86 µM

**Q.** For `O=C(Nc1cccc([N+](=O)[O-])c1)Nc1cccs1`, which IC50 is on record?
**A.** 45.6 µM

**Q.** Which IC50 does the source give for `Oc1ccc(N=Nc2ccc(Br)cc2)c(O)c1` here?
**A.** 87.8 µM

**Q.** `O=C(O)c1cc2c(cn1)[nH]c1ccccc12` was tested. Which IC50 did it give?
**A.** 73 µM

**Q.** Which IC50 does the source give for `N=c1c2c(n(Cc3ccc(Cl)c(Cl)c3)c3c1CCC3)CCCC2` here?
**A.** 80.1 µM

**Q.** Which IC50 does the source give for `C[C@H]1O[C@@H](n2cc(F)c(=O)[nH]c2=O)[C@H](O)[C@@H]1O` here?
**A.** 13.2 µM

**Q.** Which IC50 does the source give for `O=C(Oc1c(Cl)cc(Cl)c2cccnc12)c1ccco1` here?
**A.** 11.9 µM

**Q.** `CC(NCc1ccc(Cl)cc1)C(O)c1ccccc1` (stereo unspecified) was tested. Which IC50 did it give?
**A.** 128 µM

**Q.** `O=[N+]([O-])c1cc(/C=N/Nc2nc3ccccc3[nH]2)c(O)cc1O` was tested. Which IC50 did it give?
**A.** 24.8 µM

**Q.** How did the IC50 turn out when `O=C(CCN1CCOCC1)c1ccc(Br)cc1` was run?
**A.** 129 µM

**Q.** Which IC50 does the source give for `CN(Cc1ccccc1)CC(O)COc1ccc(CNCc2ccc(Cl)s2)cc1` (stereo unspecified) here?
**A.** 39.1 µM

**Q.** With `OCCN1CCN(C2Cc3cc(Cl)ccc3Sc3ccc(Cl)cc32)CC1` (stereo unspecified) (tested in a mixture with another compound) as the molecule, how does the IC50 read?
**A.** 74.8 µM

**Q.** For `Nc1nnnn1/N=C/c1cc([N+](=O)[O-])ccc1O`, which IC50 is on record?
**A.** 91.5 µM

**Q.** `Oc1ccc(CN2CCN(Cc3ccccc3)CC2)c2cccnc12` was tested. Which IC50 did it give?
**A.** 39.5 µM

**Q.** Which IC50 does the source give for `COC12C(COC(N)=O)C3=C(C(=O)C(C)=C(N)C3=O)N1CC1C2N1C` (stereo unspecified) here?
**A.** 31.2 µM

**Q.** For `COc1c(N2CCNC(C)C2)c(F)cc2c(=O)c(C(=O)O)cn(C3CC3)c12` (stereo unspecified), which IC50 is on record?
**A.** < 0.23 µM

**Q.** For `CC(C(=O)NC1C=CS(=O)(=O)C1)N1C(=O)/C(=C/c2ccc(Cl)cc2)SC1=S` (stereo unspecified), which IC50 is on record?
**A.** 22.2 µM

**Q.** For `Cn1c(N/N=C/c2c[nH]c3ccccc23)nc2ccccc21`, which IC50 is on record?
**A.** 113 µM

**Q.** For `Oc1cccc(C=NCc2ccccc2)c1O`, which IC50 is on record?
**A.** 57.7 µM

**Q.** For `O=C(CCc1ccccc1)NNC(=S)NC(=O)c1ccccc1`, which IC50 is on record?
**A.** 122 µM

**Q.** For `CCN1CCN(C(=O)c2cc3cc(F)ccc3[nH]2)CC1`, which IC50 is on record?
**A.** 97.5 µM

**Q.** How did the IC50 turn out when `Brc1ccc2c(c1)C(OC1CN3CCC1CC3)c1ccccc1CS2` (stereo unspecified) was run?
**A.** 95.5 µM

**Q.** Which IC50 does the source give for `N#Cc1c(-c2ccccc2)ccn(Cc2cccc(Cl)c2)c1=O` here?
**A.** 21.2 µM

**Q.** Which IC50 does the source give for `N=c1n(CC(=O)c2ccc(Br)s2)c2ccccc2n1Cc1ccccc1` here?
**A.** 47.2 µM

**Q.** `CC(C)N1CSC(=S)N(Cc2ccccc2)C1` was tested. Which IC50 did it give?
**A.** 59.7 µM

**Q.** Which IC50 does the source give for `C=C1c2cccc(O)c2C(O)=C2C(=O)[C@]3(O)C(O)=C(C(N)=O)C(=O)[C@@H](N(C)C)[C@@H]3[C@@H](O)[C@H]12` here?
**A.** 0.376 µM

**Q.** With `Cc1ccc(OCC(=O)N/N=C\c2c(C)[nH]n(-c3ccccc3)c2=O)c([N+](=O)[O-])c1` as the molecule, how does the IC50 read?
**A.** 53.6 µM

**Q.** With `O=C(N/N=C/c1c[nH]c2ccccc12)c1cccc(O)c1` as the molecule, how does the IC50 read?
**A.** 130 µM

**Q.** For `O=C(/C=C(\O)c1ccccc1)C(=O)NNC(=O)c1ccccc1`, which IC50 is on record?
**A.** 19.7 µM

**Q.** How did the IC50 turn out when `Cc1ccc(-c2ccccc2NC(=O)CS(=O)CC(=O)Nc2ccc(C)c(Cl)c2)o1` (stereo unspecified) was run?
**A.** 46.5 µM

**Q.** `CCCCC(CC)CN=C(N)NC(N)=NCCCCCCN=C(N)NC(N)=NCC(CC)CCCC` (stereo unspecified) was tested. Which IC50 did it give?
**A.** 2.61 µM

**Q.** How did the IC50 turn out when `CC(C(=O)NC1C=CS(=O)(=O)C1)N1C(=O)/C(=C/c2cccc(Cl)c2)SC1=S` (stereo unspecified) was run?
**A.** 33.6 µM

**Q.** Which IC50 does the source give for `O=C1c2cccc3cccc(c23)C(=O)C1(O)O` here?
**A.** 28.8 µM

**Q.** `COc1ccc(N2C(=O)CC(N3CC=C(c4ccccc4)CC3)C2=O)cc1` (stereo unspecified) was tested. Which IC50 did it give?
**A.** 82.4 µM

**Q.** For `CN(C)CCCN(C(=O)COc1ccccc1)c1nc2ccc(Cl)cc2s1`, which IC50 is on record?
**A.** 141 µM

**Q.** How did the IC50 turn out when `N/C(=N\OS(=O)(=O)c1ccc(Cl)cc1)c1cccnc1` was run?
**A.** 91.3 µM

**Q.** `COc1ccc(NC(=O)COC(=O)c2ccc([N+](=O)[O-])o2)cc1Cl` was tested. Which IC50 did it give?
**A.** 46.8 µM
